The values that follow come from patent publication US12162866B1, “Crystal form of pyrazolyl-amino-pyrimidinyl derivative, and preparation method therefor and use thereof” (LYNK PHARMACEUTICALS CO., LTD., priority 2023, dated 2024).

≈ marks a conversion by molar mass, not a printed value. Bounds are passed on as bounds.

By solubility is commonly meant the concentration that dissolves in the medium under given conditions. The low end stands for a poorly soluble substance, the high end for a readily soluble substance. Broadly, the IC50 is the midpoint of a concentration-inhibition curve. A higher IC50 goes with a need for much substance.

In data set [1] the test system is p-STAT signaling pathway. Kind of data set: p-STAT signaling pathway induced by cytokines. Conditions: in vivo and in vitro.
Data set [2] deals with JAK1 (Homo sapiens, UniProt P23458). Kind of data set: migration detection kinase assay, JAK1. It counts as biochemical.
Data set [3] addresses TYK2 (Homo sapiens, UniProt P29597). Kind of data set: migration detection kinase assay, TYK2. It counts as biochemical.
For data set [4], the system named is keratinocytes. Kind of data set: proliferation of keratinocytes. Format: cell-based. The settings on record: preclinical study.
In data set [5] the target is JAK2 (Homo sapiens, UniProt O60674). Kind of data set: migration detection kinase assay, JAK2.
The conditions of data set [6]: phase II and phase III, treatment of AD; cited from earlier work.
A short description of data set [7]: press testing (crystal transformation under pressure). Format: physicochemical. Conditions: 10 Mpa, 5 min.
The nature of data set [8]: simulated dry grinding. It counts as physicochemical. Conditions: dry grinding for 3 min.
Data set [9] is described as follows: dynamic solubility in simulated gastrointestinal fluid. It counts as physicochemical. The settings on record: for solubility at 1 h / solubility at 4 h / solubility at 24 h: 37° C.; for XRPD of remaining solid: after 24 h. Here is the method:
After 24 h, the pH of the suspension was determined. The remaining suspension was centrifuged, and the remaining solid was subjected to XRPD characterization.

Data set [10] is described as follows: hygroscopicity by DVS. It counts as physicochemical.
Data set [11] in a line: stability investigation (influencing factor, accelerated, intermediate, long term). Format: physicochemical.
A short description of data set [12]: water activity experiment at 25° C. It counts as physicochemical. Conditions: for XRPD result: 25° C. The source says:
The resulting solid was filtered and subjected to XRPD characterization.

For data set [13], the target named is T1, JAK3 (Homo sapiens, UniProt P52333).
T1 sequence (P52333 1-1124): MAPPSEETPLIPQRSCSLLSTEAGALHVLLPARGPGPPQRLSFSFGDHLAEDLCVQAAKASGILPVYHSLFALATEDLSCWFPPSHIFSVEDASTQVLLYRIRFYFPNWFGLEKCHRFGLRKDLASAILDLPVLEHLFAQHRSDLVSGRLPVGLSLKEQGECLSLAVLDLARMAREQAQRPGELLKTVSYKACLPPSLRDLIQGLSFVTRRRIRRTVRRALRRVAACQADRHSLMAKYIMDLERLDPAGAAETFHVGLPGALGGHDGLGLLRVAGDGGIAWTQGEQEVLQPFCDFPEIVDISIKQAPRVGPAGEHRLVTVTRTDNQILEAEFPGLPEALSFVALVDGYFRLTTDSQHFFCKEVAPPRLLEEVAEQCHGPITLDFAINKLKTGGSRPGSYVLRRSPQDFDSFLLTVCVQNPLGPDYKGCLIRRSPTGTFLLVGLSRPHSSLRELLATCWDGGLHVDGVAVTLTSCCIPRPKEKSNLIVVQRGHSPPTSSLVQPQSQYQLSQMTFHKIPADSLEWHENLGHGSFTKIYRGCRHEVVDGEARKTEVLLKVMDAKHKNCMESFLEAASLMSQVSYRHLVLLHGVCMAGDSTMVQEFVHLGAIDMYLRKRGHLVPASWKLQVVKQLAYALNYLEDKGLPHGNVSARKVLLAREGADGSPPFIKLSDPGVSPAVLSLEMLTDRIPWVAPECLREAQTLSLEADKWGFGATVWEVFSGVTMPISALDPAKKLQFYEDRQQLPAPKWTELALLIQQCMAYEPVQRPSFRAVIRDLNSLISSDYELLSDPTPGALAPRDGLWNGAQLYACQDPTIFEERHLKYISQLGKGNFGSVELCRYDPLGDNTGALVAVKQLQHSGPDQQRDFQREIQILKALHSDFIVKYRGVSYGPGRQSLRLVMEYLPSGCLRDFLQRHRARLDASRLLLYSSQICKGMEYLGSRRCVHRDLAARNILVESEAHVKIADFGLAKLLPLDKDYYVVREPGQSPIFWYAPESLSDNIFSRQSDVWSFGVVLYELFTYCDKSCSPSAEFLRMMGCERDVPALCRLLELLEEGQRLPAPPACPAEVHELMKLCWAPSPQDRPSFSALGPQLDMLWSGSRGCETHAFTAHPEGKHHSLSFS
Kind of data set: migration detection kinase assay, JAK3. The settings on record: 1 mM ATP. Format: biochemical.

A short description of data set [14]: simulated wet grinding. It counts as physicochemical. Conditions: 3 min.
Where [15] appears, read: fassif, thermodynamic from solid, simulated pre-meal intestinal fluid.
The mark [16] stands for this setting: fessif, thermodynamic from solid, simulated postprandial intestinal fluid.
Setting [17] is: simulated gastric fluid, thermodynamic from solid, simulated gastric juice.

JAK2, sequence (O60674 whole entry): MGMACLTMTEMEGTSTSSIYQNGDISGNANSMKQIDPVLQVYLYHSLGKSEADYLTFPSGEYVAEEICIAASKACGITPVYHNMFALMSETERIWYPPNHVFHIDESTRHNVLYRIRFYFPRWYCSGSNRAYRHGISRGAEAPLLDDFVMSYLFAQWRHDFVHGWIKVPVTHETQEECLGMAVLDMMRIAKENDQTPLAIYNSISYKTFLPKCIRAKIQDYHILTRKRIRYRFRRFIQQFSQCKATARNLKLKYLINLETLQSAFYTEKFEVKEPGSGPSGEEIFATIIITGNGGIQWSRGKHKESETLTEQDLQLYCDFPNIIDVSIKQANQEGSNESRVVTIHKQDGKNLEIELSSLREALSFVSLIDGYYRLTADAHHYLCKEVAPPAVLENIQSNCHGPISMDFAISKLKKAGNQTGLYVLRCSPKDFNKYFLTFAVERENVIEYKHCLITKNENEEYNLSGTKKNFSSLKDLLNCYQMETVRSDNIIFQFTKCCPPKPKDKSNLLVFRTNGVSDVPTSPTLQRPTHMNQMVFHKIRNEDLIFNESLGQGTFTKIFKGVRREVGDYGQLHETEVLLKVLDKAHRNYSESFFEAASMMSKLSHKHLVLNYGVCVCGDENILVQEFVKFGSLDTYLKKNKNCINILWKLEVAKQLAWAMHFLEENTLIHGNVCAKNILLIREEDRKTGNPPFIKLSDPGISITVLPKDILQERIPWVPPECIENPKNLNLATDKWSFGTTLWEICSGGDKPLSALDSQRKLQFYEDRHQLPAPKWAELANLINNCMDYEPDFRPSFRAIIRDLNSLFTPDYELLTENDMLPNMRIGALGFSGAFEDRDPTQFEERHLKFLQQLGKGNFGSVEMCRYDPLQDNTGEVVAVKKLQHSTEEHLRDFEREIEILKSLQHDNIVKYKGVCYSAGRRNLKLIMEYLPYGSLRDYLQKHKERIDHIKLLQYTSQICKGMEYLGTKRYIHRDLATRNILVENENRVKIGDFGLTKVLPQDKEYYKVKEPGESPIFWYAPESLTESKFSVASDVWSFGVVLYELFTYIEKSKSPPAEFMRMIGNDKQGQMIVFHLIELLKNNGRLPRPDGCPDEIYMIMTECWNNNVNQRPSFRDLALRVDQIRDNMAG
TYK2, sequence (P29597 whole entry): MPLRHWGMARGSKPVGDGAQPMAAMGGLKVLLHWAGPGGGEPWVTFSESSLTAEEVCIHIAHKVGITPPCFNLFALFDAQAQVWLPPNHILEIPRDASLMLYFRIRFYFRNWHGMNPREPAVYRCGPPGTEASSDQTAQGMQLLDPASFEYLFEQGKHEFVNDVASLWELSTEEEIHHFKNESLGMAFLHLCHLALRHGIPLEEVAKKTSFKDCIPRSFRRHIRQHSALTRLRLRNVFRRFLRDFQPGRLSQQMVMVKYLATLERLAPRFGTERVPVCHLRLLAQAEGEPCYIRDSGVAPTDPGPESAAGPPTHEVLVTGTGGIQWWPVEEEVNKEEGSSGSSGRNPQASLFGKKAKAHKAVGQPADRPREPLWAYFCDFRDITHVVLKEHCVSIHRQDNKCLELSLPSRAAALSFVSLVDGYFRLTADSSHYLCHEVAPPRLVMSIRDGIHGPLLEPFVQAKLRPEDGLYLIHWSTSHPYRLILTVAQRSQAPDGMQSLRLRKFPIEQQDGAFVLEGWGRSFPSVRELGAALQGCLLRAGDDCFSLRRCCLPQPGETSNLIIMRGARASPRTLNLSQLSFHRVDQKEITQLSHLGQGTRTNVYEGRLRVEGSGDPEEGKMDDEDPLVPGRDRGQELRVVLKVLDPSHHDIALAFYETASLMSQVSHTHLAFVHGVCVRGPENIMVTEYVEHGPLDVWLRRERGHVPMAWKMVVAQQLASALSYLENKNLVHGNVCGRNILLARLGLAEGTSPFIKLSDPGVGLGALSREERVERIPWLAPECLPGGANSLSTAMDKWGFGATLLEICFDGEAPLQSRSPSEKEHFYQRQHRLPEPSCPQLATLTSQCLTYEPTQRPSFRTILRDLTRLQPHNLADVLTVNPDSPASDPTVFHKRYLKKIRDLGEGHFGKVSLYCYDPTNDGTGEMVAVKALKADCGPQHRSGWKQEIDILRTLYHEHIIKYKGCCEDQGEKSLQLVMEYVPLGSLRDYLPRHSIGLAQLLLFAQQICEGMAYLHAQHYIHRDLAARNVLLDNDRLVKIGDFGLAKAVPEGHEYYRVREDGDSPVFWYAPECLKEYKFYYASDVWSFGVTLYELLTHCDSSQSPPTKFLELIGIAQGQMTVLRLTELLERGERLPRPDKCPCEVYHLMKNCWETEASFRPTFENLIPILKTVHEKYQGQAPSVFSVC
JAK1, sequence (P23458 whole entry): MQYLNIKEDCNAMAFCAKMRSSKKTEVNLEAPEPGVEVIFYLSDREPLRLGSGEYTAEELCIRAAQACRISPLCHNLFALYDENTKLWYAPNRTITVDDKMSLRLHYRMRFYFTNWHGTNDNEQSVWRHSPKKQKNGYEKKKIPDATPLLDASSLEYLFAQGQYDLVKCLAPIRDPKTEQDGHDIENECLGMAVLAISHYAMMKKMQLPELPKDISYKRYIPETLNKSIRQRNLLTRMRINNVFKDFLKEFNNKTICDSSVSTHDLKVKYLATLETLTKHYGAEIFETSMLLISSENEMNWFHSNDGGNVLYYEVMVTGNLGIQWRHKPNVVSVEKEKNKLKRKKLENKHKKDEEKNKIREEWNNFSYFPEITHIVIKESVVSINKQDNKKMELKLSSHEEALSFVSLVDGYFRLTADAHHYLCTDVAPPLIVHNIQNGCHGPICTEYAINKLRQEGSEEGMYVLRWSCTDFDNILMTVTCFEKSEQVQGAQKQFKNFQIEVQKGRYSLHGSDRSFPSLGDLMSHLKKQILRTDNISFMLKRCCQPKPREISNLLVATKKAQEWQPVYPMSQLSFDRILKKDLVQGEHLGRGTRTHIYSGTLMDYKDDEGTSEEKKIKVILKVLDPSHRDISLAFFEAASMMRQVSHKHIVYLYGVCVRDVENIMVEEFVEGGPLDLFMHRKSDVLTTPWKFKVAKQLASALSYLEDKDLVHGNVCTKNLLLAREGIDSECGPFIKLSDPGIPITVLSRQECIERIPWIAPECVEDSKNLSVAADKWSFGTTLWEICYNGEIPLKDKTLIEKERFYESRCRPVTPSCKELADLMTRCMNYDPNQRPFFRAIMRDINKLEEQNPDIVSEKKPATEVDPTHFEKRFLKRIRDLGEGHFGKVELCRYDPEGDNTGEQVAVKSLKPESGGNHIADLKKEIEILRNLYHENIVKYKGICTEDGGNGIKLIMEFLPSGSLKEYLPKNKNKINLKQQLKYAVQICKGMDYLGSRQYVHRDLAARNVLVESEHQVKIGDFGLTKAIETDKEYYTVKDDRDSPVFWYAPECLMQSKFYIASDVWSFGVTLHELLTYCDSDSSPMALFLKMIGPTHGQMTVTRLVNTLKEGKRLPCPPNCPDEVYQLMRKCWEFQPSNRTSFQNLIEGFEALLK

Regarding `Cc1cnc(Nc2cnn(C3CC(C)(C)OC(C)(C)C3)c2)nc1-c1ccc(C(=O)NCC#N)cc1` [LNK01004], the “inhibition of p-STAT signaling pathway induced by multiple cytokines” value in data set [1] was “can inhibit p-STAT signaling pathway”. Moreover, the “inhibitory effect on JAK1” value in data set [2] (preclinical study) is listed as “strong inhibitory effect”. Moreover, the “inhibitory effect on TYK2” value in data set [3] (preclinical study) is “strong inhibitory effect”. The “inhibition of proliferation of keratinocytes” value in data set [4] is “can also inhibit the proliferation of keratinocytes”. Further, in [5] (preclinical study), the “inhibitory effect on JAK2” value is “strong inhibitory effect”.

`N#CC[C@H](C1CCCC1)n1cc(-c2ncnc3[nH]ccc23)cn1` [Ruxolitinib]: in data set [6], the tolerability result is reported as “well tolerated”.

With `Cc1cnc(Nc2cnn(C3CC(C)(C)OC(C)(C)C3)c2)nc1-c1ccc(C(=O)NCC#N)cc1` [crystal form I], the XRPD after pressing entry in data set [7] is “Crystal form I”. Besides, the “change of crystal form after pressing” value in [7] was “The crystal form is not changed,”. The “change of crystal form after dry grinding” value in [8] was “The crystal form is not changed, and”. Moreover, the “change of crystallinity after dry grinding” value in data set [8] is on record as “the crystallinity is slightly reduced”. The results for the solubility at 1 h in data set [9] (setting [15]), in data set [9] (setting [16]) and in data set [9] (setting [17]) were 100 µg/mL (≈ 212 µM), 389 µg/mL (≈ 822 µM) and 97.4 µg/mL (≈ 206 µM), respectively. In addition, the solubility at 4 h in data set [9] (setting [15]) was 111 µg/mL (≈ 234 µM); in data set [9] (setting [16]) it was 474 µg/mL (≈ 1000 µM); in data set [9] (setting [17]), 92.3 µg/mL (≈ 195 µM). Further, the solubility at 24 h is 120 µg/mL (≈ 253 µM) in [9] (setting [15]), 627 µg/mL (≈ 1320 µM) in data set [9] (setting [16]) and 102 µg/mL (≈ 215 µM) in [9] (setting [17]). Besides, the “XRPD of remaining solid” value in data set [9] (simulated gastric juice), in data set [9] (simulated postprandial intestinal fluid) and in data set [9] (simulated pre-meal intestinal fluid) was “Crystal form I” each time. Besides, the solubility in data set [9] (simulated gastrointestinal fluid, 37 °C, fassgf or other biorelevant, thermodynamic from solid, summary statement) was greater than 8 µg/mL. The “pH after 24 h” value in data set [9] (suspension in simulated gastric juice) was 2.1 (simulated; in [9] (suspension in simulated postprandial intestinal fluid) it was 5.1 (simulated; in data set [9] (suspension in simulated pre-meal intestinal fluid), 6.6 (simulated. Also, the “hygroscopicity” value in data set [10] is given as “no obvious hygroscopicity”. Besides, the “Hygroscopicity, weight gain (DVS)” value in data set [10] (under 95% RH) is on record as “Weight gain of 0.9%”. Besides, the “stability: appearance, related substances, assay, moisture, crystal form, content, microbial limit” value in [11] (accelerated condition 40° C.±2° C./75%±5% RH, 6 months) is recorded as “microbial limit were not changed”; in [11] (long-term condition 25° C.±2° C./60%±5% RH, 18 months) it was “microbial limit were not changed”. Further, the “Conclusion on crystal form” value is listed as “keeps stable” in data set [11] (accelerated, intermediate condition and long term tests); “keeps stable” in data set [11] (influencing factor test: high temperature, high humidity, illumination). Further, the “stability: appearance, related substances, assay, moisture, crystal form, content” value was “not changed” in [11] (high humidity of 92.5% RH, 30 days); “not changed” in [11] (high temperature of 60° C., 30 days); “not changed” in [11] (illumination of 1×ICH (1.2×10^6 Lux·hr, 200 w·hr/m^2)). Further, the half-inhibitory concentration (IC50) in [2] (1 mM ATP) was 10 nM; in data set [3] (1 mM ATP), 1 nM; in data set [13] it was 275 nM; in [5], less than 0.51 nM. The XRPD result in [12] (Acetone (a.w. = 0), 10 days) is “Crystal form I”; in data set [12] (Acetone (a.w. = 0), 22 days), “Crystal form I”; in data set [12] (Acetone/water 36:64 (a.w. = 0.9), 12 days) it was “Crystal form I”; in [12] (Acetone/water 60.4:39.6 (a.w. = 0.8), 12 days) it was “Crystal form I”; in [12] (Acetone/water 75.8:24.2 (a.w. = 0.7), 12 days) it was “Crystal form I”; in data set [12] (Acetone/water 91:9 (a.w. = 0.6), 10 days), “Crystal form I”. The XRPD result in [12] (Acetone/water 91:9 (a.w. = 0.6), 22 days) is on record as “Crystal form I”; in data set [12] (Acetone/water 94:6 (a.w. = 0.5), 10 days) it was “Crystal form I”; in data set [12] (Acetone/water 94:6 (a.w. = 0.5), 22 days), “Crystal form I”; in data set [12] (Acetone/water 97:3 (a.w. = 0.3), 10 days), “Crystal form I”; in [12] (Acetone/water 97:3 (a.w. = 0.3), 22 days), “Crystal form I”; in data set [12] (Acetone/water 99:1 (a.w. = 0.1), 10 days), “Crystal form I”. Moreover, the XRPD result in [12] (Acetone/water 99:1 (a.w. = 0.1), 22 days) is “Crystal form I”; in [12] (Water (a.w. = 1), 10 days) it was “Crystal form I”; in data set [12] (Water (a.w. = 1), 22 days), “Crystal form I”. Moreover, the “crystal form stability over water activity range” value in data set [12] (up to 22 days, water activity range 1% to 100%) was “not transformed into a hydrate or other crystal forms”. In addition, the “XRPD after wet grinding” value in [14] (Ethanol) and in [14] (Water) was “Crystal form I” throughout. For the same molecule, the “change of crystal form after wet grinding” value is “The crystal form is not changed, and” in [14] (Ethanol) and “The crystal form is not changed, and” in data set [14] (Water). In addition, the “change of crystallinity after wet grinding” value in [14] (Ethanol) and in [14] (Water) was “the crystallinity is slightly reduced” throughout.
